We go through two compounds from patent US9688624B2, “DP2 antagonist and uses thereof” (Brickell Biotech, Inc., priority 2010, dated 2017).

What is called IC50 is the concentration that inhibits the measured activity by half.

Counter-ions that a name gives are not always drawn. Like-named read-outs stand apart in the source and are kept apart here.

One test deals with DP2 receptor (Homo sapiens (Human), UniProt Q9Y5Y4). The test can be described thus: In vitro DP2/CRTH2 radioligand ([3H]PGD2) membrane binding assay. How it is done:
Example 15: In Vitro DP2/CRTH2 Binding Assay
The ability of Compound 1 to bind to the human DP2 receptor was assessed via a radioligand binding assay using [^3H]PGD2. HEK293 cells stably expressing recombinant human DP2 are resuspended in 10 mM Hepes, 7.4 containing 1 mM DTT, lysed and centrifuged at 75,000×g to pellet the membranes. The membranes are resuspended in 10 mM Hepes, 7.4 containing 1 mM DTT and 10% glycerol to approximately 5 mg protein/ml. […] The reactions are terminated by rapid filtration through Whatman GF/C glass fibre filter plates. The filter plates were pre-soaked in 0.33% polythylenimine for 30 minutes at room temperature then washed in Wash Buffer (50 mM Hepes, 0.5 M NaCl pH 7.4) prior to harvesting. After harvesting, the filter plates are washed 3 times with 1 ml cold Wash Buffer then dried. Scintillant is then added to the plates and the radioactivity retained on the filters is determined on a Packard TopCount (Perkin Elmer). Specific binding is determined as total radioactive binding minus non-specific binding in the presence of 10 μM PGD2. IC50s were determined using GraphPad prism analysis of drug titration curves. Mouse, rat and guinea pig DP2 receptors were also investigated.
The binding potency of Compound 1 is only slightly shifted in the presence of species-specific serum albumin.

Test [1] deals with recombinant human CRTH2 receptor (Homo sapiens (Human), UniProt Q9Y5Y4). The test can be described thus: In vitro membrane GTPγS binding assay. In kind it is biochemical. Particulars: average; 80 nM PGD2, 0.2% human serum albumin. How it is done: Example 16: In Vitro GTPγS Binding Assay
Chain of recombinant human CRTH2 receptor (Q9Y5Y4 whole entry): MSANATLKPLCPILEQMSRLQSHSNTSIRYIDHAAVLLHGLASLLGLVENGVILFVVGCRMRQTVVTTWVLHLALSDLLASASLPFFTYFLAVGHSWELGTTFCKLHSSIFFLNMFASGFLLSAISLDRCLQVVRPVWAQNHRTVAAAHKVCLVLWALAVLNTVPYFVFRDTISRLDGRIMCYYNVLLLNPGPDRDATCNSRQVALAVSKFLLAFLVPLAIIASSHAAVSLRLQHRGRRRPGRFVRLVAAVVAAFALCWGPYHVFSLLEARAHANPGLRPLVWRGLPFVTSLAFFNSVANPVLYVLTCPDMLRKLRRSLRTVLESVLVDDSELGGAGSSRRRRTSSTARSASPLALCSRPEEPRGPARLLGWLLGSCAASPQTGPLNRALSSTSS
The ability of Compound 1 to inhibit binding of GTP to DP2 is assessed via a membrane GTPγS assay. CHO cells stably expressing the recombinant human CRTH2 receptor are resuspended in 10 mM Hepes, 7.4 containing 1 mM DTT, lysed and centrifuged at 75,000×g to pellet the membranes. The membranes are resuspended in 10 mM Hepes, 7.4 containing 1 mM DTT and 10% glycerol. Membranes (˜12.5 μg per well) are incubated in 96-well plates with 0.05 nM [^35S]-GTPγS, 80 nM PGD2, 5 μM GDP, and Compound 1 in Assay Buffer (50 mM Hepes, pH 7.4, 100 mM NaCl, 5 mM MgCl2 and 0.2% human serum albumin) for 60 minutes at 30° C. The reactions are terminated by rapid filtration through Whatman GF/B glass fibre filter plates. The filter plates are washed 3 times with 1 ml cold Assay Buffer and dried. Scintillant is then added to the plates and the radioactivity retained on the filters is determined on a Packard TopCount (Perkin Elmer). Specific binding is determined as total radioactive binding minus non-specific binding in the […] of the ligand (80 nM PGD2). IC50s were determined using Graphpad prism analysis of drug titration curves.
(GTPγS is a poorly hydrolysed GTP analogue; its binding reports G protein activation.)

The next test addresses CYP2C19 (Homo sapiens (Human), UniProt P33261). Nature of the test: Extracellular cytochrome P450 inhibition (microsomes). As to conditions: IC50 (μM), 2C19, mephenytoin 4′-hydroxylation.
The subject of test [2] is allergen-induced asthma (OVA challenge). Nature of the test: Guinea pig allergic asthma (OVA) model. The test is classed as in vivo. The method, then: Example 20: Guinea Pig Allergic Asthma Model
Compound 2 was evaluated in a guinea pig OVA model in order to determine efficacy in a setting of allergen-induced asthma. As an early indication of a pharmacodynamic response animals were challenged with DK-PGD2 2 hours post OVA challenge (2.5 hours post Compound 2 administration) and blood was collected 30 minutes later to assess leukocytes counts. […] OVA challenge caused a significant influx of cells in bronchoalveolar lavage fluid at 23.5 hr post-dose; there was no difference between animals that received OVA only versus those that received OVA plus DK-PGD2. The majority of cells were eosinophils and macrophages with a small, but significant proportion of neutrophils.

Chain of DP2 receptor (Q9Y5Y4 whole entry): as above
Chain of CYP2C19 (P33261 whole entry): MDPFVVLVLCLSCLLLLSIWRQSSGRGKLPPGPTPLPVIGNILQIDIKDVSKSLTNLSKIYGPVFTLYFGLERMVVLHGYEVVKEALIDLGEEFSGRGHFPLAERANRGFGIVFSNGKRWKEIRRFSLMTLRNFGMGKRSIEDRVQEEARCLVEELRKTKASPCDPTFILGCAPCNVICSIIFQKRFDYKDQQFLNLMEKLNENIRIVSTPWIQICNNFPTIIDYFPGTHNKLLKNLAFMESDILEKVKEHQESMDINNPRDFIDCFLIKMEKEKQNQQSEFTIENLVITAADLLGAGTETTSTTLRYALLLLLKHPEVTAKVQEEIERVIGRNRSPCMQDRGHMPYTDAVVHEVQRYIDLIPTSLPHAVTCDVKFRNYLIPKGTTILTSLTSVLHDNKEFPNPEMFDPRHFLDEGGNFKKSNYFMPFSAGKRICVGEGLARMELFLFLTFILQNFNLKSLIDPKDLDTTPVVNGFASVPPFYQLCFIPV

Regarding `COc1ccc(CC(=O)O)cc1Oc1ccc(NC(=O)C(C)(C)C)cc1CSC(C)(C)C` [Compound 1, 2-(3-(2-((tert-butylthio)methyl)-4-(2,2-dimethyl-propionylamino)phenoxy)-4-methoxyphenyl)acetic acid], the IC50 amounted to 19.7 nM on DP2 receptor (average, 0.2% species-specific albumin, read-out: IC50, radioligand membrane binding on human DP2); 5.2 nM at DP2 receptor (average, without serum albumin, read-out: IC50, inhibition of radiolabeled PGD2 binding to human DP2); 19.7 nM at DP2 receptor (in the presence of 0.5% serum albumin, read-out: IC50, binding to DP2); 2.8 nM in test [1].

As to `COc1ccc(CC(=O)O)cc1Oc1ccc(NC(=O)C(C)(C)C)cc1CSC(C)(C)C` [Compound 2, 2-(3-(2-((tert-butylthio)methyl)-4-(2,2-dimethyl-propionylamino)phenoxy)-4-methoxyphenyl)acetic acid, sodium salt], the IC50 against CYP2C19 is greater than 50 µM. Further, the “eosinophils and neutrophils in bronchoalveolar lavage fluid” value in test [2] (100 mg/kg PO) is “significantly reduced”. The “total cellular influx in bronchoalveolar lavage fluid” value in test [2] (30, 60, and 100 mg/kg PO, significant at 60 and 100 mg/kg, 23.5 hr post-dose) is listed as “dose dependently inhibited”. The “DK-PGD2-induced increase in blood leukocytes” value in test [2] (30, 60, and 100 mg/kg, 2.5 hours post administration) is recorded as “blocked”.
